Values joined by “and” are separate entries in the source; they are usually repeats but may differ in a detail not shown here. Identical values can stand only once.
Experiments:
[1] = target: panel of 320 non-olfactory GPCRs (Homo sapiens, UniProt Q9NYM4); type: cell-based
[2] = target: panel of 320 non-olfactory GPCRs (Homo sapiens, UniProt P34972); type: cell-based
[3] = target: panel of 320 non-olfactory GPCRs (Homo sapiens, UniProt Q8NDV2); type: cell-based
[4] = target: panel of 320 non-olfactory GPCRs (Homo sapiens, UniProt Q9HC97); type: cell-based
[5] = target: panel of 320 non-olfactory GPCRs (Homo sapiens, UniProt Q9NPC1); type: cell-based
[6] = target: panel of 320 non-olfactory GPCRs (Homo sapiens, UniProt Q15760); type: cell-based
[7] = target: panel of 320 non-olfactory GPCRs (Homo sapiens, UniProt Q9Y2T6); type: cell-based
[8] = target: panel of 320 non-olfactory GPCRs (Homo sapiens, UniProt P32245); type: cell-based
[9] = target: panel of 320 non-olfactory GPCRs (Homo sapiens, UniProt P41143); type: cell-based
[10] = target: panel of 320 non-olfactory GPCRs (Homo sapiens, UniProt P51677); type: cell-based
[11] = target: panel of 320 non-olfactory GPCRs (Homo sapiens, UniProt Q01726); type: cell-based
[12] = target: panel of 320 non-olfactory GPCRs (Homo sapiens, UniProt Q01718); type: cell-based
[13] = target: panel of 320 non-olfactory GPCRs (Homo sapiens, UniProt P21730); type: cell-based
[14] = target: panel of 320 non-olfactory GPCRs (Homo sapiens, UniProt Q86SQ6); type: cell-based
[15] = target: panel of 320 non-olfactory GPCRs (Homo sapiens, UniProt O00222); type: cell-based
[16] = target: panel of 320 non-olfactory GPCRs (Homo sapiens, UniProt Q6QNK2); type: cell-based
[17] = tested on: panel of 320 non-olfactory GPCRs; type: cell-based, human
[18] = target: panel of 320 non-olfactory GPCRs (Homo sapiens, UniProt P35410); type: cell-based
[19] = target: panel of 320 non-olfactory GPCRs (Homo sapiens, UniProt P25103); type: cell-based
[20] = target: panel of 320 non-olfactory GPCRs (Homo sapiens, UniProt Q96RI8); type: cell-based
[21] = target: panel of 320 non-olfactory GPCRs (Homo sapiens, UniProt Q16602); type: cell-based
[22] = target: panel of 320 non-olfactory GPCRs (Homo sapiens, UniProt P47871); type: cell-based
[23] = target: panel of 320 non-olfactory GPCRs (Homo sapiens, UniProt Q13585); type: cell-based
[24] = target: panel of 320 non-olfactory GPCRs (Homo sapiens, UniProt Q9NQS5); type: cell-based
[25] = target: panel of 320 non-olfactory GPCRs (Homo sapiens, UniProt O95800); type: cell-based
[26] = target: panel of 320 non-olfactory GPCRs (Homo sapiens, UniProt P30542); type: cell-based
[27] = target: panel of 320 non-olfactory GPCRs (Homo sapiens, UniProt Q9UJ42); type: cell-based
[28] = target: panel of 320 non-olfactory GPCRs (Homo sapiens, UniProt Q96LB1); type: cell-based
[29] = target: panel of 320 non-olfactory GPCRs (Homo sapiens, UniProt P48145); type: cell-based
[30] = target: panel of 320 non-olfactory GPCRs (Homo sapiens, UniProt Q9BY21); type: cell-based
[31] = target: panel of 320 non-olfactory GPCRs (Homo sapiens, UniProt P41594); type: cell-based
[32] = target: panel of 320 non-olfactory GPCRs (Homo sapiens, UniProt P30989); type: cell-based
[33] = target: panel of 320 non-olfactory GPCRs (Homo sapiens, UniProt P21728); type: cell-based
[34] = target: panel of 320 non-olfactory GPCRs (Homo sapiens, UniProt Q9Y653); type: cell-based
[35] = target: panel of 320 non-olfactory GPCRs (Homo sapiens, UniProt P46092); type: cell-based
[36] = target: panel of 320 non-olfactory GPCRs (Homo sapiens, UniProt Q9P296); type: cell-based
[37] = target: panel of 320 non-olfactory GPCRs (Homo sapiens, UniProt O43193); type: cell-based

Sequence of panel of 320 non-olfactory GPCRs (Homo sapiens, UniProt Q9Y2T6) (Q9Y2T6 whole entry): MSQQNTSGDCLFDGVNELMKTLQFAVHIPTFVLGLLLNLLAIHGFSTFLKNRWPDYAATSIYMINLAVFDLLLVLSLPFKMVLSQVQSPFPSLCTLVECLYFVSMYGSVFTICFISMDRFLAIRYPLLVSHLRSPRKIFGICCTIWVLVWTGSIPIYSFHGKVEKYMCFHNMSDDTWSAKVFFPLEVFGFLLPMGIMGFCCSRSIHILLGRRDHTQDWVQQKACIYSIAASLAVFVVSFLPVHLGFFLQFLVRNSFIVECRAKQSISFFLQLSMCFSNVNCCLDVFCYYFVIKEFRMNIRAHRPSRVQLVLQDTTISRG
Sequence of panel of 320 non-olfactory GPCRs (Homo sapiens, UniProt Q13585) (Q13585 whole entry): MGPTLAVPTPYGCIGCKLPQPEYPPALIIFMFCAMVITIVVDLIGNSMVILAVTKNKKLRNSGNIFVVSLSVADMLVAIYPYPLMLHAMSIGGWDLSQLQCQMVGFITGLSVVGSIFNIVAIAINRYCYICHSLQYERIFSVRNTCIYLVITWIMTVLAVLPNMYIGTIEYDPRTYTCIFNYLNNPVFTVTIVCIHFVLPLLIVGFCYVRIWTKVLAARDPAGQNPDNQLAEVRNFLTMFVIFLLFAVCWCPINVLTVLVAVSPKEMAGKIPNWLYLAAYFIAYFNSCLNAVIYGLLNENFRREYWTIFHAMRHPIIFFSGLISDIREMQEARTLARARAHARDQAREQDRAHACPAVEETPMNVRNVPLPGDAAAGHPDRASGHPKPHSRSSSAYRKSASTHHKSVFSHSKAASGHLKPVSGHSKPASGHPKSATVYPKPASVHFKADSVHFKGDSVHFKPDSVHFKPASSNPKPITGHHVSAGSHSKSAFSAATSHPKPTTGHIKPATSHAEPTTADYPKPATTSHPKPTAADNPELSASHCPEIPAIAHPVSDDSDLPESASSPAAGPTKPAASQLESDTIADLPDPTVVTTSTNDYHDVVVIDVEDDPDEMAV
Sequence of panel of 320 non-olfactory GPCRs (Homo sapiens, UniProt P46092) (P46092 whole entry): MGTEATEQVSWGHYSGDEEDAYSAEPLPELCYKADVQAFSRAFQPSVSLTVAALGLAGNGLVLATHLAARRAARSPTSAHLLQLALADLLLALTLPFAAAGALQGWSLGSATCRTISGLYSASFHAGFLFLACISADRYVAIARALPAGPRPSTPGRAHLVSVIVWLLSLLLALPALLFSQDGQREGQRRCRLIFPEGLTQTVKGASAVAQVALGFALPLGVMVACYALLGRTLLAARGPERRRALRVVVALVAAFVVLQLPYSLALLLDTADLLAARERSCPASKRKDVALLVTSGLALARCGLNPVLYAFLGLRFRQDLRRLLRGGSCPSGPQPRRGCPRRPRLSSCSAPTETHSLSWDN
Sequence of panel of 320 non-olfactory GPCRs (Homo sapiens, UniProt P32245) (P32245 whole entry): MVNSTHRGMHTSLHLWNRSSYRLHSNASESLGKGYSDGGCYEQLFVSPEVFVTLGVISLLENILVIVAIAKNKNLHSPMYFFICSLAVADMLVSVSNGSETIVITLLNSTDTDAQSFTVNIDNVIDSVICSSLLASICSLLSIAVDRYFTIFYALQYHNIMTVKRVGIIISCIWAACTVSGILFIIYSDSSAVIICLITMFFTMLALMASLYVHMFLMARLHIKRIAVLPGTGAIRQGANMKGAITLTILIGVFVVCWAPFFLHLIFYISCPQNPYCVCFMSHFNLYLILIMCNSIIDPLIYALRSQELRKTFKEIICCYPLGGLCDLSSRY
Sequence of panel of 320 non-olfactory GPCRs (Homo sapiens, UniProt P35410) (P35410 whole entry): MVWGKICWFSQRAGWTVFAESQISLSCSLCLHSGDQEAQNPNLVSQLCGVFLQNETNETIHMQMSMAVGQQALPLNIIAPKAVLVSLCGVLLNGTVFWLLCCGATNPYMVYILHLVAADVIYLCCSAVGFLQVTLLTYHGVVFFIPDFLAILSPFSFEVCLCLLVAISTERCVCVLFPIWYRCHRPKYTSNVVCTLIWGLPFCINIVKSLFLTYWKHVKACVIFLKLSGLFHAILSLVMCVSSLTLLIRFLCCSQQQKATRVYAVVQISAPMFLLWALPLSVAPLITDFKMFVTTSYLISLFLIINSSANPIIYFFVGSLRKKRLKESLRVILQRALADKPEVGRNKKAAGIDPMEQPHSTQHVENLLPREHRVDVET
Sequence of panel of 320 non-olfactory GPCRs (Homo sapiens, UniProt P21728) (P21728 whole entry): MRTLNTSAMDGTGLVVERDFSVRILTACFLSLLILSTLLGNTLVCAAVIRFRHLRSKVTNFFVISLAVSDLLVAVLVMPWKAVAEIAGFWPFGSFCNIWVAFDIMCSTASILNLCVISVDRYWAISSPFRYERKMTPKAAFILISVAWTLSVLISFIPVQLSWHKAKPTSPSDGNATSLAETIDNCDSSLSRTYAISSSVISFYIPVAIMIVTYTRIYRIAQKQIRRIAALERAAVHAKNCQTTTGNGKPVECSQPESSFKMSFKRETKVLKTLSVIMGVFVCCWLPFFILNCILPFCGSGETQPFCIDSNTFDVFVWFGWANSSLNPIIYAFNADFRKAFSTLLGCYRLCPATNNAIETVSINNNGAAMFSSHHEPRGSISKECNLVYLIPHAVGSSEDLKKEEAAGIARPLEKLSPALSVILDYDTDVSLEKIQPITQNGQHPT
Sequence of panel of 320 non-olfactory GPCRs (Homo sapiens, UniProt Q9NYM4) (Q9NYM4 17-423): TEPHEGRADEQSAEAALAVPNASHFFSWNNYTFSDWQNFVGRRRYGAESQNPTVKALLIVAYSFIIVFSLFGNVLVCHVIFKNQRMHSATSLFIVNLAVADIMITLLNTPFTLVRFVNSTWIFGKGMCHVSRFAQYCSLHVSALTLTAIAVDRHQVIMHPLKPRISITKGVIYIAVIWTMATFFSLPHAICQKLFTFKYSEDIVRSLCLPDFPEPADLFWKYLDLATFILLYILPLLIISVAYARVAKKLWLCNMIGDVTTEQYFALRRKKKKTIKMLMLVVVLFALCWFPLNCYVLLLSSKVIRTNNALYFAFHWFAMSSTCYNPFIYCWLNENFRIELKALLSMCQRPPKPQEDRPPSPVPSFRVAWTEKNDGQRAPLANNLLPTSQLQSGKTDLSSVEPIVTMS
Sequence of panel of 320 non-olfactory GPCRs (Homo sapiens, UniProt P41594) (P41594 21-1212): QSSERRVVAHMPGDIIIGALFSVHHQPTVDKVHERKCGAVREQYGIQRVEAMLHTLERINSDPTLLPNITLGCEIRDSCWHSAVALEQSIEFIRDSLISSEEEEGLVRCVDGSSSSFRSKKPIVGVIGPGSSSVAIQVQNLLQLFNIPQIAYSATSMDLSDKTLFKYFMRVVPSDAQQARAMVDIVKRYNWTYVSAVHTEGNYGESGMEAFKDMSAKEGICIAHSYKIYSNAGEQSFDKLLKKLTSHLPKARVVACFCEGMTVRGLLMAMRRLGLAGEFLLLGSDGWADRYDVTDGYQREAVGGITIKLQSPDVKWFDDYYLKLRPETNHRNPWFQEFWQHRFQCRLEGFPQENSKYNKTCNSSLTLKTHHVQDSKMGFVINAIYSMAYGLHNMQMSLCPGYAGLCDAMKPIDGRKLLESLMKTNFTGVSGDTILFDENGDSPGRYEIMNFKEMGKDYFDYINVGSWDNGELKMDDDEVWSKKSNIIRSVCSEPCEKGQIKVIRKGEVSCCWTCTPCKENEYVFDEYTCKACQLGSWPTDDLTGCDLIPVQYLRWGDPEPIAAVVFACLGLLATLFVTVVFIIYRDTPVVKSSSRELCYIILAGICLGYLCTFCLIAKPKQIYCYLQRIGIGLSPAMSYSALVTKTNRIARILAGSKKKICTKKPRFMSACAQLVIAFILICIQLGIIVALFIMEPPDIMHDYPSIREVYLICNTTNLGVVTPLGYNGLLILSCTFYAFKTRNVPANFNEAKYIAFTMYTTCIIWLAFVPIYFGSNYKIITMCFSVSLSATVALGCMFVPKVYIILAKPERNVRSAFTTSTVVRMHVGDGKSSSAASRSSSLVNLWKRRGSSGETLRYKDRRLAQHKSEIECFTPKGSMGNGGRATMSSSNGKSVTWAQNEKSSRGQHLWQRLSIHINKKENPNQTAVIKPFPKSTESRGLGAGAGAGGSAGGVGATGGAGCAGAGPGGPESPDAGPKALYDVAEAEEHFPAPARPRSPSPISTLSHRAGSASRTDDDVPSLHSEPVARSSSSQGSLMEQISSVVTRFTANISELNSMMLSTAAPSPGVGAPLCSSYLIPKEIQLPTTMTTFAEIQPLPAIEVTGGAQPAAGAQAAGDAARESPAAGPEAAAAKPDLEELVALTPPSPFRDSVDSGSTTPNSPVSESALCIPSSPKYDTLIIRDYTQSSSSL
Sequence of panel of 320 non-olfactory GPCRs (Homo sapiens, UniProt Q15760) (Q15760 whole entry): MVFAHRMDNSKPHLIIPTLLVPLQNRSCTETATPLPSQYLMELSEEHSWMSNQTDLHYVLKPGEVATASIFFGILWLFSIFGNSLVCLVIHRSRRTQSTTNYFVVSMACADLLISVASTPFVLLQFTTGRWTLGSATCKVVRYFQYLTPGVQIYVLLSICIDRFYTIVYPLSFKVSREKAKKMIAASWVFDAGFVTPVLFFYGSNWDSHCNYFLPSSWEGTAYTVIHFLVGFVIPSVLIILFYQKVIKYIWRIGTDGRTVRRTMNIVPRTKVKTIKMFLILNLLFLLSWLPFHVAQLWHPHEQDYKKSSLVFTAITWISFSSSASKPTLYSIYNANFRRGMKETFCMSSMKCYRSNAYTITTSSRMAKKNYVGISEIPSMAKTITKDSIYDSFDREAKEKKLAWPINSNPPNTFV
Sequence of panel of 320 non-olfactory GPCRs (Homo sapiens, UniProt Q9HC97) (Q9HC97 whole entry): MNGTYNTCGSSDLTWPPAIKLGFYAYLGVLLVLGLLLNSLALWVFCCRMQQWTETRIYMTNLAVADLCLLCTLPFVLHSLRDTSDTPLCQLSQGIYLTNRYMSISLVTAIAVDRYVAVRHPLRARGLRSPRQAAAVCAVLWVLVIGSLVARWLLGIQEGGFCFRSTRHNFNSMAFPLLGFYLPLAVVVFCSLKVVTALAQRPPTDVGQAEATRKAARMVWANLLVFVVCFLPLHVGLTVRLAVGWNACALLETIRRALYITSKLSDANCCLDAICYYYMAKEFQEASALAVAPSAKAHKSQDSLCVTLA

With `Cc1cc(C(=O)NC(C)(c2ccco2)c2ccco2)nn1-c1cccc(C(F)(F)F)c1` [‘4936] the “Fold of Basal RLU” value [1] was 0.8 fold and 0.9 fold and 0.6 fold, the “Fold of Basal RLU” value [2] was 12.4 and 11.8 and 12 and 10.8 and the “Fold of Basal RLU” value [3] was 2 fold and 1.4 fold and 2.8 fold and 1.7 fold. For the same compound, the “Fold of Basal RLU” value [4] was 1 fold and 1.4 fold and 0.9 fold, the “Fold of Basal RLU” value [5] was 0.6 fold and 0.8 fold and 0.7 fold and 0.9 fold and the “Fold of Basal RLU” value [6] was 0.8 fold and 1 fold. For the same compound, the “Fold of Basal RLU” value [7] was 1.1 fold and 1.7 fold and 1.4 fold, the “Fold of Basal RLU” value [8] was 1.9 fold and 1.8 fold and 1.7 fold and 1.6 fold and the “Fold of Basal RLU” value [9] was 0.7 fold and 1.1 fold and 0.6 fold. The “Fold of Basal RLU” value [10] was 1 fold and 0.9 fold and 1.4 fold, the “Fold of Basal RLU” value [11] was 1.2 and 0.8 and 0.7 and 1.1 and the “Fold of Basal RLU” value [12] was 1.4 and 1.2 and 1. The “Fold of Basal RLU” value [13] was 0.8 fold and 0.7 fold, the “Fold of Basal RLU” value [14] was 0.8 fold and 0.7 fold and 0.9 fold and the “Fold of Basal RLU” value [15] was 0.3 and 0.6 and 0.4 and 0.5. For the same compound, the “Fold of Basal RLU” value [16] was 0.9 fold, the “agonist activity at GPR55, GPR18, GPR119” value [17] was “no agonist activity” and the off-target functional activity [17] was “except for ‘4936 against ADORA-1”. The “Fold of Basal RLU” value [18] was 0.8 and 0.4 and 0.6, the “Fold of Basal RLU” value [19] was 1.3 and 1.8 and 1.7 and 2 and the “Fold of Basal RLU” value [20] was 0.8 fold and 1.3 fold and 0.7 fold. The “Fold of Basal RLU” value [21] was 1 and 0.6 and 0.5, the “Fold of Basal RLU” value [22] was 1.3 and 1.1 and 1.4 and 0.8 and the “Fold of Basal RLU” value [23] was 0.8 and 0.6 and 0.5 and 0.7. The “Fold of Basal RLU” value [24] was 1 fold and 0.9 fold and 1.6 fold, the “Fold of Basal RLU” value [25] was 1.7 fold and 1.4 fold and 1.6 fold and the “Fold of Basal RLU” value [26] was 6.4 fold and 5.8 fold and 6.3 fold and 7.4 fold. For the same compound, the “Fold of Basal RLU” value [27] was 0.8 fold and 1.1 fold and 0.9 fold, the “Fold of Basal RLU” value [28] was 1.3 fold and 1.2 fold and 1.7 fold and 1.4 fold and the “Fold of Basal RLU” value [29] was 0.6 and 1.1 and 0.7. For the same compound, the “Fold of Basal RLU” value [30] was 1 fold and 1.2 fold and 1.1 fold and 1.3 fold, the “Fold of Basal RLU” value [31] was 1.1 and 1.2 and 0.9 and 0.8 and the “Fold of Basal RLU” value [32] was 1.6 fold and 1.2 fold and 0.9 fold and 1 fold. The “Fold of Basal RLU” value [33] was 0.7 and 0.9 and 0.8, the “Fold of Basal RLU” value [34] was 2.1 fold and 1.6 fold and 1.2 fold and 1.1 fold and the “Fold of Basal RLU” value [35] was 0.9 fold and 1.2 fold and 1 fold. The “Fold of Basal RLU” value [36] was 0.9 fold and 1 fold and 1.1 fold and the “Fold of Basal RLU” value [37] was 2 and 1.6 and 1.3 and 1.1.
`COC(=O)[C@@](C)(NC(=O)c1cc(C)n(-c2cccc(C(F)(F)F)c2)n1)c1cccs1` [‘1350] was tested, and the “Fold of Basal RLU” value [1] was 1.2 fold and 1 fold and 0.8 fold, the “Fold of Basal RLU” value [2] was 8.2 and 8.7 and 8.6 and the “Fold of Basal RLU” value [3] was 1.6 fold and 1.8 fold and 1.3 fold. The “Fold of Basal RLU” value [4] was 1 fold and 0.9 fold and 1.1 fold, the “Fold of Basal RLU” value [5] was 0.8 fold and 1 fold and 0.6 fold and 0.7 fold and the “Fold of Basal RLU” value [6] was 0.9 fold and 1.2 fold and 1 fold. The “Fold of Basal RLU” value [7] was 1.4 fold and 1.3 fold and 1.5 fold, the “Fold of Basal RLU” value [8] was 1 fold and 1.4 fold and 0.8 fold and the “Fold of Basal RLU” value [9] was 1 fold and 0.9 fold and 0.8 fold. For the same compound, the “Fold of Basal RLU” value [10] was 0.9 fold and 1 fold and 1.2 fold, the “Fold of Basal RLU” value [11] was 0.7 and 0.6 and 1 and the “Fold of Basal RLU” value [12] was 1 and 1.3 and 0.7. For the same compound, the “Fold of Basal RLU” value [13] was 1.1 fold and 0.9 fold and 1.2 fold and 1 fold, the “Fold of Basal RLU” value [14] was 0.9 fold and 1.1 fold and 1.3 fold and the “Fold of Basal RLU” value [15] was 0.7 and 0.9 and 1.2 and 1.4. The “Fold of Basal RLU” value [16] was 0.7 fold and 0.9 fold and 1 fold and 1.1 fold, the “agonist activity at GPR55, GPR18, GPR119” value [17] was “no agonist activity” and the off-target functional activity [17] was “little activity was seen”. The “Fold of Basal RLU” value [18] was 1.9 and 1.3 and 1 and 1.2, the “Fold of Basal RLU” value [19] was 1.1 and 1.2 and 1.7 and the “Fold of Basal RLU” value [20] was 0.9 fold and 1.2 fold and 1.1 fold and 0.8 fold. The “Fold of Basal RLU” value [21] was 0.4 and 0.7 and 0.6, the “Fold of Basal RLU” value [22] was 0.8 and 1 and 1.2 and 1.1 and the “Fold of Basal RLU” value [23] was 0.9 and 0.7 and 1.3 and 1. For the same compound, the “Fold of Basal RLU” value [24] was 1 fold and 1.1 fold and 1.2 fold and 1.4 fold, the “Fold of Basal RLU” value [25] was 1.1 fold and 1 fold and 1.2 fold and 2 fold and the “Fold of Basal RLU” value [26] was 1.2 fold and 1.7 fold and 1.6 fold and 2.1 fold. The “Fold of Basal RLU” value [27] was 0.7 fold and 1.1 fold and 1 fold, the “Fold of Basal RLU” value [28] was 1.7 fold and 1.5 fold and 1 fold and 1.1 fold and the “Fold of Basal RLU” value [29] was 1.2 and 1.8 and 1.3 and 1.4. The “Fold of Basal RLU” value [30] was 1 fold and 0.9 fold and 1.1 fold, the “Fold of Basal RLU” value [31] was 0.8 and 0.6 and 0.7 and the “Fold of Basal RLU” value [32] was 1.5 fold and 1 fold and 1.1 fold. For the same compound, the “Fold of Basal RLU” value [33] was 0.9 and 1.1 and 0.8, the “Fold of Basal RLU” value [34] was 1.4 fold and 1.2 fold and 1.5 fold and the “Fold of Basal RLU” value [35] was 0.9 fold and 1 fold and 1.2 fold and 1.3 fold. For the same compound, the “Fold of Basal RLU” value [36] was 0.9 fold and 0.8 fold and 1.3 fold and 1.5 fold and the “Fold of Basal RLU” value [37] was 0.7 and 0.6.
